{"source": "patent US20160312292A1", "about": "“METHODS FOR TREATING HEMATOLOGICAL CANCERS AND THE USE OF BIOMARKERS AS A PREDICTOR OF CLINICAL SENSITIVITY TO IMMUNODULATORY THERAPIES” (CELGENE CORPORATION, priority 2013, published 2016)", "test_system": "refractory or relapsed diffuse large B-Cell lymphoma (DLBCL) patients", "assay": "Clinical trial of lenalidomide in refractory or relapsed DLBCL patients: best response, PFS, OS", "type": "in vivo, human", "source_text": "A clinical trial was formed with four arms, each arm containing 25 patients. One arm contained patients classified as presenting germinal center B-cell-like DLBCL subtypes receiving lenalidomide, a second arm contained patients classified as presenting germinal center B-cell-like DLBCL subtypes receiving another therapy selected by the investigator, a third arm contained patients classified as presenting activated B-cell-like DLBCL subtypes receiving lenalidomide, and a fourth arm contained patients classified as presenting activated B-cell-like DLBCL subtypes receiving another therapy selected by the investigator. The patients in the four arms of the clinical trial received treatment until disease progression.\nFor purposes of this exploratory analysis, a subset of the clinical data associated to each patient comprised the therapy arm, Revlimid (REV) or control drug (CON), and their corresponding response to the drug in both categorical variable {complete response (CR), partial response (PR), establish disease (SD), progression disease (PD) and Death} and continuous variables as progression free survival (PFS) and overall (OS), unit weeks. It also includes the predicted DLBCL sub-type (ABC/GCB) and other demographic data. […]", "note": "Where “and” joins values, the source holds several entries; their conditions need not be identical. Equal values may be shown once.", "data": [{"compound": "Nc1cccc2c1CN(C1CCC(=O)NC1=O)C2=O", "note": "(centres unmarked) [lenalidomide, 3-(4-amino-1-oxo-1,3-dihydro-isoindol-2-yl)-piperidine-2,6-dione]", "values": [{"measurement": "progression free survival (PFS)", "setting": "individual Revlimid-arm DLBCL patients whose baseline FF profile had a non-zero estimated proportion of NK-cells", "value": "27 weeks and 31.9 weeks and 32.4 weeks and 85.3 weeks"}, {"measurement": "progression free survival (PFS)", "setting": "one lenalidomide-treated DLBCL patient with low B aIgM proportion who died shortly after starting treatment", "value": "< 3", "unit": "weeks"}]}]}
